Test results taken from US11287416B2, “Cancer” (NEURO-BIO LTD, priority 2016, dated 2022).
Entries after “also recorded” stand apart in the source; their conditions may differ. Square brackets hold non-standard residues; d marks the D form. Peptide text beside a SMILES is read from it. Bpa = N[C@@H](Cc1ccc(C(=O)c2ccccc2)cc1)C(=O)O; Phe(4-NH2) = Nc1ccc(C[C@H](N)C(=O)O)cc1; hArg = N=C(N)NCCCC[C@H](N)C(=O)O

Legend:
Type in all cases: cell-based
[1] = test system: alpha7 nicotinic receptors, PC12 cells; experiment: Calcium fluorometry (Fluo-8), PNU282987-induced calcium influx in PC12 cells; conditions: PNU282987 1 μM; for protection against T30-induced calcium influx: T30 combined with blocker
Procedure: PC12 cells were plated in 200 μl of Dulbecco's Modified Eagle's medium (DMEM) plus 2 mM of L-glutamine medium the day before the experiment in 96 well plates. On the day of the experiment, the Fluo-8 solution (Abcam) was prepared as described by the provider by adding 20 μl of Fluo-8 in the assay buffer that contains 9 ml of Hank's Balanced Salt Solution (HBSS) and 1 ml of pluronic F127 Plus. Subsequently, 100 μl of growth medium was removed and 100 μl of Fluo-8 solution were added. Treatments with T30 in conjunction with NBP14 or Tri peptides were added and incubated for 30 minutes in the incubator and 30 minutes room temperature. After 1 h, the plate was placed in the fluorescence plate reader (Fluostar, Optima, BMG Labtech, Ortenberg, Germany). Before reading the fluorescence, PNU282987 1 μM, an alpha7 specific agonist of the nicotinic receptors, was prepared and placed in the Fluostar injector. For each well, the reading was formed by a basal fluorescence reading followed by PNU282987 injection that induced an increase of calcium via nicotinic receptors.
(§1) In each of the different cell techniques, the statistics analysis was performed with the average of the percentage values of 3 or more experiments. Comparisons between multiple treatment groups and the same control were performed by one-way analysis of variance (ANOVA) and Tukey's post-hoc tests using GraphPAD Instat (GraphPAD software, San Diego, Calif.). Statistical significance was taken at a p value<0.05.

astroglia = experiment: cell proliferation assay (trophic-toxic effects); conditions: for toxic effect in cell proliferation assay: high concentration, 10 μM
[2] = test system: AChE activity, PC12 cells; conditions: for protection against T30-induced AChE activity: T30 1 μM combined with blocker
Procedure: AChE activity was measured using the Ellman reagent that measures the presence of thiol groups as a result of AChE activity. In the case of the G4 experiment, AChE (G4) activity was tested alone and also together with either NBP14 or Tri peptides. PC12 cells were plated the day before the experiment as for the cell viability assay. Cells were treated with T30 (1 μM) alone or combined with NBP14 or Tri peptide (0.5 μM). After treatment, supernatant (perfusate) of each treatment was collected and 25 μL from is each condition were added to a new flat bottomed 96 well plate followed by the addition of 175 μl of Ellman reagent (Solution A: KH2PO4 139 mM and K2HPO4 79.66 mM, pH 7.0; solution B (substrate): Acetylthiocholine Iodide 11.5 mM; Solution C (Reagent): 5,5′-dithiobis (2-nitrobenzoic acid) 8 mM and NaHCO15 mM). The Ellman reagent was prepared as a mixture of the 3 solutions in a ratio 33(A):3(B):4(C). Absorbance measurements were taken for an interval of 60 minutes across experiments at 405 nm in a Vmax plate reader (Molecular devices, Wokingham, UK).
as §1

rat basal forebrain = experiment: voltage-sensitive dye imaging (VSDI) on brain slices; conditions: for magnitude (summed fluorescence) of evoked responses, compound alone: 4 μM in perfusate, no T30, rat basal forebrain slices
Procedure: Male Wistar rats (14 days old) were anaesthetised using isoflurane ([…], 100% w/w). Isoflurane was applied to the cotton bed at the bottom of an anaesthetic chamber (glass box 20×15×15 cm) where rats were then placed for approximately 45 s until complete anaesthesia was reached. The hind paw of each anaesthetised rat was pinched to check for the appropriate depth of anaesthesia. Upon confirmation of anaesthesia, rats were quickly decapitated, with the brain being quickly removed and immersed in ice cold oxygenated ‘slicing’ artificial cerebrospinal fluid (aCSF in mmol: 120 NaCl, 5 KCL, 20 NaHCO3, 2.4 CaCl2 2 MgSO4, 1.2 KH2PO4, 10 glucose, 6.7 HEPES salt and 3.3 HEPES acid; pH=7.1). Coronal slices (400 μm thick) were then taken from a block of brain containing the basal forebrain, namely the MS-dBB complex (between +9.20 and +9.48 mm Interaural and +0.48 and +0.2 mm Bregma, FIG. 4A) and the somatosensory barrel field cortex (SiBF, between +8.08 and +7.20 mm Interaural and −0.92 mm and −1.80 mm Bregma) (Paxinos and Watson, 1998) using a Vibratome (Leica VT1000S). Slices were then transferred to a bubbler pot containing oxygenated aCSF at room temperature (recording aCSF in mmol: 124 NaCl, 5 KCL, 20 NaHCO3, 2.4 CaCl2 2 MgSO4, 1.3 KH2PO4, 10 glucose; pH=7.4) which was identical to that used in VSDI (voltage sensitive dye imaging) recording. Slices were then left for approximately 1-1.5 hours before preparing them for VSD staining.
Slices were placed in a dark, high humidity chamber filled with aCSF bubbled with 95% O2, 5% CO2. Once there, the dye solution (4% 0.2 mM styryl dye pyridinium 4-[2-[6-(dibutylamino)-2-napthalenyl]-ethenyl]-1-(3-sulfopropyl)hydroxide(Di-4-NEPPS), Invitrogen, Paisley, UK in 48% aCSF, 48% foetal bovine serum, 3.5% DMSO and 0.4% cremophore EL) (Tominaga et al., 2000) was applied to the slices for 20-25 minutes before being transferred back to a bubbler pot containing oxygenated aCSF kept at room temperature for 30 minutes.
When starting the VSDI recordings, slices were placed in the recording bath on a small piece of filter paper to allow the flow of oxygenated aCSF on the underside of the slice and in order to keep it alive. The slice was then weighed down by a home-made plastic grid that was placed on top of the slice. The perfusing bath solution was heated to 30±1° C. by a stage heater. A concentric bipolar stimulating electrode (FHC, Maine, USA) was placed in the ventral diagonal band of the basal forebrain with stimulation being set to 30V. For the acquisition of VSD data, 2 dimensional images, equivalent to 88×60 pixels, were recorded using the MiCamo2 High Resolution camera (Brain Vision, Japan) with BV_Analyze imaging software. Acquisition of images was coupled to Spike2 V4.23 software (CED Ltd, Cambridge, UK) in order to align the image capture with the stimulation protocol (every 28 s with 30 repeats) via the Micro 1401 MkII. (CED Ltd, Cambridge, UK). Light was generated using an Osram halogen xenophot 64634 HLX EFR Display/Optic lamp and was filtered to emit green (530±10 nm) light using a MHF-G150LR (Moritex Corporation) coupled to the MiCamo2 High resolution imaging system and filtered the emitted fluorescence through a >590 nm high pass filter.
All drug and peptide stocks were prepared in frozen aliquots prior to experiments. For the production of perfusion solutions, stock solutions were thawed and added to recording aCSF as appropriate and bath applied at a constant rate of 1.5 ml/min perfusion using the Minipulse 3 peristaltic pump (Gilson Scientific Ltd., Bedfordshire, UK).

[3] = co-perfusion 4 μM blocker with 2 uM T30

Question: For “KAEFHRWSSYMVHWKNQFDHYSKQDRCSDL (listed as Homo sapiens) [Compound T30, Acetylcholinesterase (AChE) C-terminus 30 amino acid peptide]”, which calcium influx ([1]; peptide alone, 1 μM) is on record?
Answer: Its calcium influx is “increases”.

Question: And the “cell proliferation, trophic effect on astroglia” value (astroglia; 1 pM peptide)?
Answer: The value was 120±4%.

Question: And the “cell proliferation, trophic effect on astroglia” value (astroglia; 10 pM peptide)?
Answer: The value was 135±9%.

Question: And the “toxic effect in cell proliferation assay” value (astroglia)?
Answer: Its value is “equal toxic effects”.

Question: And the AChE activity ([2]; peptide alone, 1 μM)?
Answer: The AChE activity was “increases”.

Question: What about the “effect of T30 alone on evoked VSDI signal” value (rat basal forebrain; T30 2 uM, basal forebrain of p14 rats) of the same molecule?
Answer: The value was “greatest deviation; also recorded: net inhibition”.

Question: How did the “protection against T30-induced calcium influx” value [1] turn out when “c[AEFHRWSSYMVHWK] (head-to-tail cyclised; listed as Homo sapiens) [NBP14]” was run?
Answer: The value was “protects against these toxic effects”.

Question: What about the “protection against T30-induced AChE activity” value [2] of the same molecule?
Answer: Its value is “protects against these toxic effects”.

Question: What about the “magnitude (summed fluorescence) of evoked responses, compound alone” value (shortened to “magnitude (summed fluorescence)”) (rat basal forebrain) of the same molecule?
Answer: The value was “small, non-significant alterations”.

Question: What about the “blocking of T30-induced effects on basal forebrain activity” value (“blocking of T30-induced effects” for short) (rat basal forebrain; [3]) of the same molecule?
Answer: The value was “totally block the T30-induced effects”.

Question: Which results are given for “AEFHRWSSYMVHWK (listed as Homo sapiens) [Compound T14, toxic 14 amino acid peptide from the C-terminus of acetylcholinesterase]”?
Answer: cell proliferation, trophic effect on astroglia (astroglia; 1 pM peptide): 96±5%; cell proliferation, trophic effect on astroglia (astroglia; 10 pM peptide): 121±8%; toxic effect in cell proliferation assay (astroglia): equal toxic effects

Question: For CC(=O)N[C@@H](Cc1ccc2ccccc2c1)C(=O)N[C@@H](Cc1ccc(N)cc1)C(=O)N[C@@H](Cc1c[nH]c2ccccc12)C(N)=O [Tri02] (HELM PEPTIDE1{[ac].[O=C([C@H](Cc1ccc2ccccc2c1)N[*:1])[*:2]].[Nc1ccc(C[C@H](N[*:1])C(=O)[*:2])cc1].W.[am]}$$$$V2.0), which “protection against T30-induced calcium influx” value [1] is on record?
Answer: Its value is “protects against the toxic effects of T30”.

Question: And the “protection against T30-induced AChE activity” value [2]?
Answer: The value was “protects against the toxic effects of T30”.

Question: And the “magnitude (summed fluorescence)” value (rat basal forebrain)?
Answer: The value was “small alterations”.

Question: What about the “magnitude (summed fluorescence)” value (rat basal forebrain; listed as Triol) of the same molecule?
Answer: The value was “recapitulates results seen with application of 4 μM NBP14”.

Question: And the “blocking of T30-induced effects” value (rat basal forebrain; [3])?
Answer: The value was “not found to protect against T30-induced deviations from baseline; also recorded: some efficacy in blocking those T30-induced deviation”.

Question: How did the “protection against T30-induced calcium influx” value [1] turn out when CC(=O)N[C@@H](Cc1ccc(C(=O)c2ccccc2)cc1)C(=O)N[C@@H](CCCCNC(=N)N)C(=O)N[C@@H](Cc1ccc(N)cc1)C(N)=O [Tri04] (Ac-[Bpa]-[hArg]-[Phe(4-NH2)]-NH2) was run?
Answer: The value was “protects the toxic effects of T30 by reducing calcium influx”.

Question: And the “blocking of T30-induced effects” value (rat basal forebrain; co-perfusion 2 μM blocker with 2 μM T30, n=29)?
Answer: The value was “significant effect on basal forebrain population activity; also recorded: reversal of the inhibitory effect of T30; also recorded: increase in network activity; also recorded: protective role”.

Question: And the “blocking of T30-induced effects” value (rat basal forebrain; [3])?
Answer: Its value is “totally block the T30-induced effects; also recorded: recapitulates results previously seen with the application of 4 μM NBP14; also recorded: significant effect reversing T30 activity”.
